# What was measured:
# [1] = system: Influenza strain A549 A/WSN/33 (H1N1); assay: microbe, parasite or virus in culture; assay type: cell-based; conditions: Influenza A virus, A549, 20 h, A549 cells, influenza A/WSN/33 (H1N1), 20 hours incubation; read-out: A549_A(H1N1) EC50
# in vitro = conditions: human, CC50, uninfected A549 cells, CellTiter-Glo
SMILES,EC50 [1] [nM],CC50 (in vitro) [nM]
"O=C1c2c(O)c(=O)ccn2N2CN1C/C=C\CCc1cnccc1[C@H]2c1ccccc1 (single isomer, unassigned) [Compound 56A, (18*R,*Z)-12-hydroxy-18-phenyl-5,6,9,18-tetrahydro-10,17-methanodipyrido[1,2-b:3′,4′-k][1,2,5]triazacyclotridecine-11,13-dione]",> 1000,> 2000
"O=C1c2c(O)c(=O)ccn2N2CN1C/C=C\CCc1cnccc1[C@@H]2c1ccccc1 (single isomer, unassigned) [Compound 56B, (18*S,*Z)-12-hydroxy-18-phenyl-5,6,9,18-tetrahydro-10,17-methanodipyrido[1,2-b:3′,4′-k][1,2,5]triazacyclotridecine-11,13-dione]",161,> 2000
"O=C1c2c(O)c(=O)ccn2N2CN1C/C=C/CCc1cc(F)ccc1[C@@H]2c1ccccn1 (single isomer, unassigned) [Compound 57A, (16*R,E)-13-fluoro-4-hydroxy-16-(pyridin-2-yl)-7,10,11,16-tetrahydro-6,17-methanobenzo[k]pyrido[1,2-b][1,2,5]triazacyclotridecine-3,5-dione]",32,> 2000
"O=C1c2c(O)c(=O)ccn2N2CN1C/C=C/CCc1cc(F)ccc1[C@H]2c1ccccn1 (single isomer, unassigned) [Compound 57B, (16*S,E)-13-fluoro-4-hydroxy-16-(pyridin-2-yl)-7,10,11,16-tetrahydro-6,17-methanobenzo[k]pyrido[1,2-b][1,2,5]triazacyclotridecine-3,5-dione]",> 1000,> 2000
"O=C1c2c(O)c(=O)ccn2N2CN1C/C=C/CCc1cc(F)c(F)cc1[C@@H]2c1ccccn1 (single isomer, unassigned) [Compound 58A, (16*R,E)-13,14-difluoro-4-hydroxy-16-(pyridin-2-yl)-7,10,11,16-tetrahydro-6,17-methanobenzo[k]pyrido[1,2-b][1,2,5]triazacyclotridecine-3,5-dione]",44,> 2000
"O=C1c2c(O)c(=O)ccn2N2CN1C/C=C/CCc1cc(F)c(F)cc1[C@H]2c1ccccn1 (single isomer, unassigned) [Compound 58B, (16*S,E)-13,14-difluoro-4-hydroxy-16-(pyridin-2-yl)-7,10,11,16-tetrahydro-6,17-methanobenzo[k]pyrido[1,2-b][1,2,5]triazacyclotridecine-3,5-dione]",> 1000,> 2000
"O=C1c2c(O)c(=O)ccn2N2CN1C/C=C\COc1c(F)cccc1[C@@H]2c1cccc(F)c1 (single isomer, unassigned) [Compound 59B, (18*S,Z)-4-fluoro-18-(3-fluorophenyl)-12-hydroxy-6,9-dihydro-18H-10,17-methanobenzo[b]pyrido[1,2-f][1]oxa[5,6,9]triazacyclotridecine-11,13-dione]",497,> 2000
"O=C1c2c(O)c(=O)ccn2N2CN1C/C=C\COc1c(F)cccc1[C@H]2c1ccccc1 (single isomer, unassigned) [Compound 61A, (18*R,Z)-4-fluoro-12-hydroxy-18-phenyl-6,9-dihydro-18H-10,17-methanobenzo[b]pyrido[1,2-f][1]oxa[5,6,9]triazacyclotridecine-11,13-dione]",5,> 2000
"O=C1c2c(O)c(=O)ccn2N2CN1C/C=C\COc1c(F)cccc1[C@@H]2c1ccccc1 (single isomer, unassigned) [Compound 61B, (18*S,Z)-4-fluoro-12-hydroxy-18-phenyl-6,9-dihydro-18H-10,17-methanobenzo[b]pyrido[1,2-f][1]oxa[5,6,9]triazacyclotridecine-11,13-dione]",155,> 2000
"O=C1c2c(O)c(=O)ccn2N2CN1C/C=C\COc1ccccc1[C@H]2c1cccc(F)c1 (single isomer, unassigned) [Compound 63A, (18*R,Z)-18-(3-fluorophenyl)-12-hydroxy-6,9-dihydro-18H-10,17-methanobenzo[b]pyrido[1,2-f][1]oxa[5,6,9]triazacyclotridecine-11,13-dione]",> 1000,> 2000
"O=C1c2c(O)c(=O)ccn2N2CN1C/C=C\COc1ccccc1[C@@H]2c1cccc(F)c1 (single isomer, unassigned) [Compound 63B, (18*S,Z)-18-(3-fluorophenyl)-12-hydroxy-6,9-dihydro-18H-10,17-methanobenzo[b]pyrido[1,2-f][1]oxa[5,6,9]triazacyclotridecine-11,13-dione]",13,> 2000
"O=C1c2c(O)c(=O)ccn2N2CN1CC/C=C/CCOc1ccccc1[C@H]2c1ccccc1 (single isomer, unassigned) [Compound 65A, (2*R,*Z)-15-hydroxy-2-phenyl-12,13,14,16-tetrahydro-11H-4-oxa-1(1,3)-pyrido[2,1-f][1,2,4]triazina-3(1,2)-benzenacyclodecaphan-7-ene-14,16-dione]",> 5000,> 10000
"O=C1c2c(O)c(=O)ccn2N2CN1CC/C=C\CCOc1ccccc1[C@H]2c1ccccc1 (single isomer, unassigned) [Compound 65C, (2*R,*E)-15-hydroxy-2-phenyl-12,13,14,16-tetrahydro-11H-4-oxa-1(1,3)-pyrido[2,1-f][1,2,4]triazina-3(1,2)-benzenacyclodecaphan-7-ene-14,16-dione]",7890,> 20000
"O=C1c2c(O)c(=O)ccn2N2CN1CC/C=C/CCOc1ccccc1[C@@H]2c1ccccc1 (single isomer, unassigned) [Compound 65D, (2*S,*E)-15-hydroxy-2-phenyl-12,13,14,16-tetrahydro-11H-4-oxa-1(1,3)-pyrido[2,1-f][1,2,4]triazina-3(1,2)-benzenacyclodecaphan-7-ene-14,16-dione]",66,> 2000
"O=C1c2c(O)c(=O)ccn2N2CN1CCC/C=C/COc1ccccc1[C@H]2c1ccccc1 (single isomer, unassigned) [Compound 67A, (2*R,*Z)-15-hydroxy-2-phenyl-12,13,14,16-tetrahydro-11H-4-oxa-1(1,3)-pyrido[2,1-f][1,2,4]triazina-3(1,2)-benzenacyclodecaphan-6-ene-14,16-dione]",> 1000,> 2000
"O=C1c2c(O)c(=O)ccn2N2CN1CCC/C=C/COc1ccccc1[C@@H]2c1ccccc1 (single isomer, unassigned) [Compound 67B, (2*S,*Z)-15-hydroxy-2-phenyl-12,13,14,16-tetrahydro-11H-4-oxa-1(1,3)-pyrido[2,1-f][1,2,4]triazina-3(1,2)-benzenacyclodecaphan-6-ene-14,16-dione]",> 1000,> 2000
"O=C1c2c(O)c(=O)ccn2N2CN1C/C=C\COc1cc(F)c(F)cc1[C@@H]2c1ccccn1 (single isomer, unassigned) [Compound 70A, (18*R,*Z)-2,3-difluoro-12-hydroxy-18-(pyridin-2-yl)-6,9-dihydro-18H-10,17-methanobenzo[b]pyrido[1,2-f][1]oxa[5,6,9]triazacyclotridecine-11,13-dione]",> 10000,> 20000
"O=C1c2c(O)c(=O)ccn2N2CN1C/C=C\COc1cc(F)c(F)cc1[C@H]2c1ccccn1 (single isomer, unassigned) [Compound 70B, (18*S,*Z)-2,3-difluoro-12-hydroxy-18-(pyridin-2-yl)-6,9-dihydro-18H-10,17-methanobenzo[b]pyrido[1,2-f][1]oxa[5,6,9]triazacyclotridecine-11,13-dione]",32,> 200
"O=C1c2c(O)c(=O)ccn2N2CN1C/C=C\COc1cc(F)ccc1[C@@H]2c1ccccn1 (single isomer, unassigned) [Compound 71A, (18*R,*Z)-3-fluoro-12-hydroxy-18-(pyridin-2-yl)-6,9-dihydro-18H-10,17-methanobenzo[b]pyrido[1,2-f][1]oxa[5,6,9]triazacyclotridecine-11,13-dione]",34,> 200
"O=C1c2c(O)c(=O)ccn2N2CN1C/C=C\COc1cc(F)ccc1[C@H]2c1ccccn1 (single isomer, unassigned) [Compound 71B, (18*S,*Z)-3-fluoro-12-hydroxy-18-(pyridin-2-yl)-6,9-dihydro-18H-10,17-methanobenzo[b]pyrido[1,2-f][1]oxa[5,6,9]triazacyclotridecine-11,13-dione]",7690,> 20000
"O=C1c2c(O)c(=O)ccn2N2CN1C/C=C\COc1cc(Cl)ccc1[C@H]2c1ccccc1 (single isomer, unassigned) [Compound 72A, (18*R,Z)-3-chloro-12-hydroxy-18-phenyl-6,9-dihydro-18H-10,17-methanobenzo[b]pyrido[1,2-f][1]oxa[5,6,9]triazacyclotridecine-11,13-dione]",> 1000,> 2000
"O=C1c2c(O)c(=O)ccn2N2CN1C/C=C\COc1cc(Cl)ccc1[C@@H]2c1ccccc1 (single isomer, unassigned) [Compound 72B, (18*S,Z)-3-chloro-12-hydroxy-18-phenyl-6,9-dihydro-18H-10,17-methanobenzo[b]pyrido[1,2-f][1]oxa[5,6,9]triazacyclotridecine-11,13-dione]",8,> 2000
"O=C1c2c(O)c(=O)ccn2N2CN1C/C=C\COc1c(ccc(F)c1F)[C@H]2c1ccccc1 (single isomer, unassigned) [Compound 74A, (18*R,Z)-3,4-difluoro-12-hydroxy-18-phenyl-6,9-dihydro-18H-10,17-methanobenzo[b]pyrido[1,2-f][1]oxa[5,6,9]triazacyclotridecine-11,13-dione]",> 1000,> 2000
"O=C1c2c(O)c(=O)ccn2N2CN1C/C=C\COc1c(ccc(F)c1F)[C@@H]2c1ccccc1 (single isomer, unassigned) [Compound 74B, (18*S,Z)-3,4-difluoro-12-hydroxy-18-phenyl-6,9-dihydro-18H-10,17-methanobenzo[b]pyrido[1,2-f][1]oxa[5,6,9]triazacyclotridecine-11,13-dione]",2,> 200

# — patent publication US11312727B1, “Macrocyclic flu endonuclease inhibitors” (Janssen BioPharma, Inc., priority 2018, dated 2022)
